Experimental findings from PubChem BioAssay (NCI) are described below.

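Protocol summary: plate cells (96-well), add compound at 5 concentrations, incubate 48 h, interpolate endpoints linearly. GI50: concentration for 50% inhibition of growth. Definition used: TGI = concentration required for complete inhibition of growth.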

What all share (experiment): DTP human tumour cell line panel, 48 h
Test [1] has as its system K-562 leukemia.
Test [2] has as its system A498 renal.
Test [3] relates to RXF 393 renal.
The subject of test [4] is HCT-116 colon.
The test system of test [5] is SW-620 colon.
Test [6] relates to MCF7 breast.
For test [7], the system named is KM12 colon.
Test [8] relates to HS 578T breast.
For test [9], the system named is NCI-H226 lung.
Test [10] concerns COLO 205 colon.

For the compound `COc1cc(CSc2nc3ccc(Cl)cc3c(=O)n2Cc2ccccc2)cc(OC)c1OC`, the GI50 in test [1] is 1.19 µM; in test [2], 1.89 µM; in test [3] it was 3.15 µM; in test [4], 3.72 µM; in [5], 2.65 µM; in [6] it was 1.34 µM. Also, the GI50 is 2.9 µM in test [7], 1.63 µM in test [8], 12.3 µM in [9] and 1.56 µM in test [10]. Moreover, the TGI in [1] is more than 100 µM; in test [2], 8.2 µM; in [3], 13.4 µM; in test [4], more than 100 µM; in [5], more than 100 µM; in test [6], 45.5 µM. The TGI in test [7] was more than 100 µM; in test [8], 14.5 µM; in [9], more than 100 µM; in test [10] it was 4.05 µM.
In the case of `COc1ccc(C2c3ccc4ccccc4c3Oc3ncn(CCCn4ccnc4)c(=N)c32)cc1OC` (stereo not given), the GI50 in [1] is 2.07 µM; in test [2], 1.5 µM; in test [3], 1.78 µM; in test [4], 3.02 µM; in [5], 2.73 µM; in test [6], 3.11 µM. Further, the GI50 is 3.74 µM in [7], 2.26 µM in [8], 9.16 µM in test [9] and 2.04 µM in test [10]. For the same compound, the TGI is 4.54 µM in test [1]; 4.59 µM in test [2]; 4.64 µM in test [3]; 11 µM in [4]; 9.24 µM in test [5]; 12.3 µM in [6]. In addition, the TGI in [7] was found to be 13.9 µM; in [8] it was 7.46 µM; in test [9], 27.1 µM; in test [10], 4.51 µM.
In the case of `COc1ccc(OC)c(N2CC(O)=C(c3nc4ccccc4s3)C2=N)c1`, the GI50 in test [1] is 23.6 µM; in test [2], 18.9 µM; in test [3], 95 µM; in test [4], 57.5 µM; in test [5], 32.7 µM; in test [6], 60.8 µM. The GI50 was 39.1 µM in test [7], 34.5 µM in test [8], 56.9 µM in test [9] and 47.3 µM in [10]. Further, the TGI in test [1] was more than 100 µM; in test [2] it was 59.6 µM; in test [3] it was more than 100 µM; in test [4], more than 100 µM; in test [5], more than 100 µM; in test [6], more than 100 µM. The TGI in [7], in [8], in [9] and in test [10] was more than 100 µM throughout.
Regarding `COc1cc(OC)c(C(=O)/C=C/c2ccc(C#N)cc2)c(OC)c1`, the GI50 in [1] is 1.54 µM; in test [2], 1.33 µM; in test [3], 1.39 µM; in test [4] it was 1.07 µM; in test [5], 1.84 µM; in [6] it was 1.49 µM. Moreover, the GI50 in test [7] is 1.58 µM; in test [8], 1.93 µM; in test [9], 2.67 µM; in test [10], 1.82 µM. The concentration for total growth inhibition (TGI) in test [1] is more than 50 µM; in [2] it was 3.95 µM; in test [3], 4.23 µM; in [4] it was 3.82 µM; in test [5], 7.22 µM; in test [6] it was more than 50 µM. The TGI is 6.55 µM in [7], more than 50 µM in test [8], more than 50 µM in test [9] and 7.38 µM in [10].
Take `O=C1CN=C(c2ccc[nH]2)c2cc(Cl)ccc2N1`: the GI50 in [1] is 54 µM; in test [2], more than 100 µM; in test [3] it was more than 100 µM; in [4], 13 µM; in test [5] it was more than 100 µM; in [6] it was more than 100 µM. For the same compound, the GI50 in test [7], in [8], in test [9] and in test [10] was more than 100 µM each time. Besides, the TGI in [1], in test [2], in test [3], in [4], in test [5] and in test [6] was more than 100 µM throughout. Also, the TGI in test [7], in [8], in test [9] and in [10] was more than 100 µM in each case.
With `CC1(C)C(=O)/C=C\C(=O)C(C)(C)C2=CC=C(O2)C(C)(C)C(=O)C(Br)C(Br)C(=O)C(C)(C)C2=CC=C1O2` (stereo not given), the TGI was 45.4 µM in test [1]; more than 100 µM in [2]; more than 83.8 µM in test [3]; 65.6 µM in test [4]; 31.1 µM in test [5]; more than 100 µM in test [6]. For the same compound, the concentration for total growth inhibition (TGI) in test [7], in test [8], in test [9] and in test [10] was more than 100 µM in each case.
For `COc1cccc(/C=N\NC(=O)c2ccncc2)c1O`, the GI50 in [1] was 13.7 µM; in [2], 51.1 µM; in [3], 5.49 µM; in test [4], 3.47 µM; in test [5], 7.48 µM; in test [6], 6.27 µM. In addition, the GI50 was 6.06 µM in [7], more than 100 µM in [8], 10.4 µM in test [9] and 4.9 µM in test [10]. Also, the TGI in test [1], in [2], in test [3], in [4], in test [5] and in test [6] was more than 100 µM in each case. The TGI in test [7], in [8], in test [9] and in test [10] was more than 100 µM each time.
Turning to `Cc1nnn(C)c1-c1cnc2c3ccc(C(C)(C)O)cc3n([C@H](c3ccccc3)C3CCOCC3)c2c1`, the GI50 in [1] is less than 0.01 µM; in test [2], less than 0.0381 µM; in test [3], 1.16 µM; in [4], 0.0149 µM; in test [5], 7 µM; in [6] it was less than 0.01 µM. Moreover, the GI50 in test [7] was 0.141 µM; in test [8] it was less than 0.01 µM; in test [9] it was 0.356 µM; in test [10] it was less than 0.01 µM. For the same compound, the TGI was more than 100 µM in test [1]; 0.581 µM in test [2]; 20.4 µM in test [3]; 16.4 µM in [4]; more than 72.1 µM in test [5]; more than 100 µM in test [6]. Moreover, the TGI in [7] was more than 91.4 µM; in test [8] it was more than 100 µM; in [9], 23.4 µM; in test [10], 30.1 µM.
